Active and inactive are the calls of the source. No cut-off for these calls is given here.
Legend:
[1] = molecular target: T1, Adrenergic receptor alpha-1 (Rattus norvegicus, UniProt P15823+P23944+P43140); assay: Binding affinity against Alpha-1 adrenergic receptor in rat cortex using [3H]prazosin; assay type: tissue-based, Brain
T1 sequence (P15823 whole entry): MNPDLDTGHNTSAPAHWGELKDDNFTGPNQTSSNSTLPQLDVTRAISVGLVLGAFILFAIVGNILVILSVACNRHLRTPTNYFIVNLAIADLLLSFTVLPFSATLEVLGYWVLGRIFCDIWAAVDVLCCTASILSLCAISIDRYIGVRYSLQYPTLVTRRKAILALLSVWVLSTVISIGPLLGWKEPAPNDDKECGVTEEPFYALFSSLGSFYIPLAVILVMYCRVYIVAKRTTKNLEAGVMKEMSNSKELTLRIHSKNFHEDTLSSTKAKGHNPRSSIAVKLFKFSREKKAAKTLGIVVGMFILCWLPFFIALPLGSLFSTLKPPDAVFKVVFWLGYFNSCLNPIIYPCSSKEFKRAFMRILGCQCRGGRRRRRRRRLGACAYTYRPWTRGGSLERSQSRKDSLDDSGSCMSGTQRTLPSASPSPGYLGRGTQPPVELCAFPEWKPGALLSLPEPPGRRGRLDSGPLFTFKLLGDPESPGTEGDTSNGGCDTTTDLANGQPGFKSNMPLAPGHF
T1 sequence (P23944 whole entry): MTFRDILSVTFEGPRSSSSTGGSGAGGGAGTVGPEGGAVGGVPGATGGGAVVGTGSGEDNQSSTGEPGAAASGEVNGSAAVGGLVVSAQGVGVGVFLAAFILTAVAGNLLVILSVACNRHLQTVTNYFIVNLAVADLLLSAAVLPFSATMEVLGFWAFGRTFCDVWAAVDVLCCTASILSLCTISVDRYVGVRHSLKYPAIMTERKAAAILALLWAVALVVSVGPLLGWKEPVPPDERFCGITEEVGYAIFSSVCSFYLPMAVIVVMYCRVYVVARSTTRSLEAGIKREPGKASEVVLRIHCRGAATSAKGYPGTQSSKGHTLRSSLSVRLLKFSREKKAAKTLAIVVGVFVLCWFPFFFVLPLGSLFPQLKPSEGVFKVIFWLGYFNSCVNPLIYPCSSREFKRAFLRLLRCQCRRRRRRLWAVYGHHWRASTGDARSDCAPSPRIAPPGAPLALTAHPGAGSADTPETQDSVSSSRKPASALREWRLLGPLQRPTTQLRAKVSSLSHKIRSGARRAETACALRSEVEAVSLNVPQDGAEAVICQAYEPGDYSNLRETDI
T1 sequence (P43140 whole entry): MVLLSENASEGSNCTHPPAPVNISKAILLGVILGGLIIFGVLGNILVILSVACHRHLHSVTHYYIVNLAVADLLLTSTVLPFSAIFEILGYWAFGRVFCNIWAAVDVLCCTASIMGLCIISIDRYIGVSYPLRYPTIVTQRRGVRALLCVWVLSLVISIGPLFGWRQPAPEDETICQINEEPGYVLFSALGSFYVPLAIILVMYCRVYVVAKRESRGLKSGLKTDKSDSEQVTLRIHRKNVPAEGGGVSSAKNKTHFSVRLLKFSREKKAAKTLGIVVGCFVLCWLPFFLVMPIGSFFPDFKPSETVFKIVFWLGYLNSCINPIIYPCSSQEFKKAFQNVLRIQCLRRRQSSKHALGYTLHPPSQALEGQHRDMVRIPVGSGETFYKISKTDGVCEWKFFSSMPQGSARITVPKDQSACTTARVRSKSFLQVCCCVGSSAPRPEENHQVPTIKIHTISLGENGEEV

[2] = molecular target: T2, 5-hydroxytryptamine receptor 2C (Rattus norvegicus, UniProt P08909); assay: Binding affinity against 5-hydroxytryptamine 2C receptor in rat choroid plexus using [3H]N-methyl-mesulergine
T2 sequence (P08909 whole entry): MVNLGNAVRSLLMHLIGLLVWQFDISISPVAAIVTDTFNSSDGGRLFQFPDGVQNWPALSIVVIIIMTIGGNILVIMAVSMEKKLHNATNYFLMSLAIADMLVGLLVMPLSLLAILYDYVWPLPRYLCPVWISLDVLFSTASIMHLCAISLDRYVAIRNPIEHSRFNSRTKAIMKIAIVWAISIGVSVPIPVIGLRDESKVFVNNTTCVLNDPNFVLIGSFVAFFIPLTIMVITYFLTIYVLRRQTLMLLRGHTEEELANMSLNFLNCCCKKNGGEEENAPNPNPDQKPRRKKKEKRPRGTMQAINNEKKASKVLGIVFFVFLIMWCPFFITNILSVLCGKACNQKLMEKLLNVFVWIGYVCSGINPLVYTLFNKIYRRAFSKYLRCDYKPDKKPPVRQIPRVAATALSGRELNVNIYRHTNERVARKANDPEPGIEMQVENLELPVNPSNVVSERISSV

D(2) dopamine receptor = D(2) dopamine receptor (Rattus norvegicus, UniProt P61169); assay: Binding affinity against D2 receptor in rat striatum using [3H]raclopride; assay type: tissue-based
[3] = molecular target: 5-hydroxytryptamine receptor 2A (Rattus norvegicus, UniProt P14842); assay: Binding affinity for 5-hydroxytryptamine 2A receptor in rat cortex using [3H]ketanserin; assay type: tissue-based
[4] = molecular target: T3, 5-hydroxytryptamine receptor 1A (Rattus norvegicus, UniProt P19327); assay: Binding affinity against 5-hydroxytryptamine 1A receptor of rat hippocampus using [3H]8-OH-DPAT; assay type: tissue-based
T3 sequence (P19327 whole entry): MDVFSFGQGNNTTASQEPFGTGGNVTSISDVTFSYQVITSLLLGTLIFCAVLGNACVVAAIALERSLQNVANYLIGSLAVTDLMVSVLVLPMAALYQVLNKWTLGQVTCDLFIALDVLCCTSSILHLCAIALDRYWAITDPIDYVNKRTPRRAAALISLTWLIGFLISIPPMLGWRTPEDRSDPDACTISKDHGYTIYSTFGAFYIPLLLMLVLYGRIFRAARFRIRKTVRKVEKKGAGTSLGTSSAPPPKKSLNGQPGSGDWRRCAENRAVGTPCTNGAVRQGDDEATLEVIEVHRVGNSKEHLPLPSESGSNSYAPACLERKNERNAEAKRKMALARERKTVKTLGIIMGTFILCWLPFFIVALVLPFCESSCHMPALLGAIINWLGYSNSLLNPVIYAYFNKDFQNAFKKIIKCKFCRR

Mus musculus [5] = assay: 5-HT2 antagonist activity was assessed by the ability of compound to antagonise 5-HTP induced head twitches at 128 mg/Kg administered perorally in mice; assay type: functional; details: po
Mus musculus [6] = assay: 5-HT2 antagonist activity was assessed by the ability of compound to antagonise mescaline induced scratching at 32 mg/Kg administered perorally in mice; assay type: functional; details: po
Mus musculus [7] = assay: 5-HT2 antagonist activity was assessed by the ability of compound to antagonise 5-HTP induced head twitches at 45 mg/Kg administered perorally in mice; assay type: functional; details: po
Mus musculus [8] = assay: 5-HT2 antagonist activity was assessed by the ability of compound to antagonise mescaline induced scratching at 8 mg/Kg administered perorally in mice; assay type: functional; details: po
Mus musculus [9] = assay: 5-HT2 antagonist activity was assessed by the ability of compound to antagonise 5-HTP induced head twitches at 4 mg/Kg administered intraperitoneally in mice; Inactive; assay type: functional, organism-based
Mus musculus [10] = assay: 5-HT2 antagonist activity was assessed by the ability of compound to antagonise mescaline induced scratching at 16 mg/Kg administered intraperitoneally in mice; Inactive; assay type: functional, organism-based
Mus musculus [11] = assay: Compound was tested for sedative activity in mice at the dose of 4 mg/kg perorally; active; assay type: functional, organism-based; parameters: dose 4 mg/kg

D(2) dopamine receptor, sequence (P61169 whole entry): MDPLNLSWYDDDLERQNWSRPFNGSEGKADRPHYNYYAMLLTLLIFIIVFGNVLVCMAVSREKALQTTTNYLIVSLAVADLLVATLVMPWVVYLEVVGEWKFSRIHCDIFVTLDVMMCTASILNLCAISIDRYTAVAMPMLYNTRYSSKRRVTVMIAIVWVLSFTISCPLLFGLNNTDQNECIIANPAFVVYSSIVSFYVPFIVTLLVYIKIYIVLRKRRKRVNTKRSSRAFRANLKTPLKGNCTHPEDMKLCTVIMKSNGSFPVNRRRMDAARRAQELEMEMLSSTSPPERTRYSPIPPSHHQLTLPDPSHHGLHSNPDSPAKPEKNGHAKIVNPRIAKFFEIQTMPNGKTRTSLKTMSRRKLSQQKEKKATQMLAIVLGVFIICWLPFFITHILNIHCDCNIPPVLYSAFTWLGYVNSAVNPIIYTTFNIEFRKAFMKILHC
5-hydroxytryptamine receptor 2A, sequence (P14842 whole entry): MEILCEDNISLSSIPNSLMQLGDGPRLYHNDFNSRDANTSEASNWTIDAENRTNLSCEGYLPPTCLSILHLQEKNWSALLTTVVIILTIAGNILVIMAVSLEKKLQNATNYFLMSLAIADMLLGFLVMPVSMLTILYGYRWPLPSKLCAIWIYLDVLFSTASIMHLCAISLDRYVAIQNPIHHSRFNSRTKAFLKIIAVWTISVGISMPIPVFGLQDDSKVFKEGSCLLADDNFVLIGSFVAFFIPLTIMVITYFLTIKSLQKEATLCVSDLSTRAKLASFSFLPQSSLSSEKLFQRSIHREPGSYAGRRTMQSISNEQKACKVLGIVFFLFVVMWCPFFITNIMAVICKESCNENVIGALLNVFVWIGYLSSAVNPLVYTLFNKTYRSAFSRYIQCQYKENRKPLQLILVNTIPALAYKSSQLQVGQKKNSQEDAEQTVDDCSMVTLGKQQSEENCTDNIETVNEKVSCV

Row | SMILES | Ki [1] [nM] | Ki [2] [nM] | Ki (D(2) dopamine receptor) [nM] | Ki [3] [nM] | Ki [4] [nM] | inhibition in vivo at 128 mg/kg (Mus musculus [5]) [%] | inhibition in vivo at 32 mg/kg (Mus musculus [6]) [%] | inhibition in vivo at 45 mg/kg (Mus musculus [7]) [%] | inhibition in vivo at 8 mg/kg (Mus musculus [8]) [%] | Activity (Mus musculus [9]) | Activity (Mus musculus [10]) | Activity (Mus musculus [11])
1 | COc1ccccc1N1CCN(CCCCc2ccc3c(c2)OCC(=O)N3CCN2CCC(C(=O)c3ccc(F)cc3)CC2)CC1 | 2 | 30 | 0.06 | 14 | 18 | – | – | – | – | – | – | –
2 | COc1ccccc1N1CCN(CCCc2ccc3c(c2)sc(=O)n3CCN2CCC(C(=O)c3ccc(F)cc3)CC2)CC1 | – | 70 | 2 | 2 | 3 | – | – | – | – | – | – | –
3 | COc1ccccc1N1CCN(CCCCc2ccc3c(c2)oc(=O)n3CCN2CCC(C(=O)c3ccc(F)cc3)CC2)CC1 | – | 75 | 0.5 | 16 | 2 | – | – | – | – | – | – | –
4 | O=C(c1ccc(F)cc1)C1CCN(CCn2c(=O)sc3cc(CCCCN4CCN(c5cccc(C(F)(F)F)c5)CC4)ccc32)CC1 | 1000 | > 10000 | 30 | 50 | 70 | – | – | – | – | – | – | –

Further compounds by falling Ki [2], results first:

Row | Ki [1] [nM] | Ki [2] [nM] | Ki (D(2) dopamine receptor) [nM] | Ki [3] [nM] | Ki [4] [nM] | SMILES | inhibition in vivo at 128 mg/kg (Mus musculus [5]) [%] | inhibition in vivo at 32 mg/kg (Mus musculus [6]) [%] | inhibition in vivo at 45 mg/kg (Mus musculus [7]) [%] | inhibition in vivo at 8 mg/kg (Mus musculus [8]) [%] | Activity (Mus musculus [9]) | Activity (Mus musculus [10]) | Activity (Mus musculus [11])
5 | 5 | 460 | 3 | 335 | 98 | COc1ccccc1N1CCN(CCCCc2ccc3c(c2)oc(=O)n3CCN2CCC(=C(c3ccc(F)cc3)c3ccc(F)cc3)CC2)CC1 | – | – | – | – | – | – | –
6 | 13 | 250 | 1.4 | 120 | 49 | COc1ccccc1N1CCN(CCCCc2ccc3c(c2)OCC(=O)N3CCN2CCC(=C(c3ccc(F)cc3)c3ccc(F)cc3)CC2)CC1 | – | – | – | – | – | – | –
7 | 5 | 240 | 1.2 | 2 | 7 | COc1ccccc1N1CCN(CCCCc2ccc3c(c2)sc(=O)n3CCN2CCC(C(=O)c3ccc(F)cc3)CC2)CC1 | 90 | 70 | 50 | 86 | – | – | –
8 | 5 | 110 | 5 | 7 | 5 | COc1ccccc1N1CCN(CCCCc2ccc3c(c2)sc(=O)n3CCN2CCC(=C(c3ccc(F)cc3)c3ccc(F)cc3)CC2)CC1 | – | – | – | – | – | – | –
9 | 1 | 50 | 5 | 20 | 6000 | COc1ccccc1N1CCN(CCc2ccc3c(c2)sc(=O)n3CCN2CCC(C(=O)c3ccc(F)cc3)CC2)CC1 | – | – | – | – | – | – | –
10 | 40 | 20 | 100 | 0.6 | 700 | O=C(c1ccc(F)cc1)C1CCN(CCn2c(=O)sc3cc(CCCCN4CCOCC4)ccc32)CC1 | – | – | – | – | inactive | inactive | Active

From ChEMBL document CHEMBL1130574, “5-HT1A and 5-HT2A ligands with anxiolytic and antipanic-like properties” (Bioorg Med Chem Lett, 1997)
